Test results from patent publication US20240173372A1 (IMDpharm Inc., priority 2021, published 2024).
≈ marks a conversion by molar mass, not a printed value.

System: House Ear Institute-Organ of Corti 1 (HEI-OC1) auditory hair cell
Assay: Apoptosis inhibitory effect on auditory cell line treated with hydrogen peroxide (MTT analysis)
Assay type: cell-based, mice
Conditions: Mus musculus, HEI-OC1, 100 μM hydrogen peroxide, read-out: EC50 (apoptosis inhibitory effect, hair cells)
Experimental: House Ear Institute-Organ of Corti 1 (HEI-OC1), an auditory hair cell derived from the Organ of Corti which is the auditory generation organ in mice, was cultured in an incubator at 33° C. in the presence of 10% CO2 using DMEM (high-glucose Dulbecco's Eagle's medium, Sigma-Aldrich Co., St. Louis, USA) culture including 10% fetal bovine serum (FBS; WELGENE Inc., Gyeongsangbuk-do, Korea) and 50 U/mL INF-γ (Peprotech Inc., Seoul, Korea) without addition of antibiotics. In order to generate reactive oxygen species (ROS) caused by oxidative stress that occurs in the process of inducing noise induced hearing loss, cell lines with noise induced hearing loss were established by treating hydrogen peroxide.

Question: COc1cccc(CCc2ccccc2OCC(CN(C)C)OC(=O)CCC(=O)O)c1 (single isomer, unassigned; (-)) [sarpogrelate, (−)-4-[1-dimethylamino-3-[2-[2-(3-methoxyphenyl)ethyl]phenoxy]propan-2-yl]oxy-4-oxobutanoic acid] was tested. Which EC50 did it give?
Answer: 26.4 µg/mL (≈ 61.5 µM)
